{"source": "paper PMC5601071", "about": "(Frontiers in Pharmacology, 2017)", "key": {"[1]": {"molecular_target": "T1, TREK-1 channel (hTREK-1/HEK cells) (Homo sapiens, UniProt O95069)", "T1 construct": "expressed in transfected cells", "T1 sequence (O95069 1-426)": "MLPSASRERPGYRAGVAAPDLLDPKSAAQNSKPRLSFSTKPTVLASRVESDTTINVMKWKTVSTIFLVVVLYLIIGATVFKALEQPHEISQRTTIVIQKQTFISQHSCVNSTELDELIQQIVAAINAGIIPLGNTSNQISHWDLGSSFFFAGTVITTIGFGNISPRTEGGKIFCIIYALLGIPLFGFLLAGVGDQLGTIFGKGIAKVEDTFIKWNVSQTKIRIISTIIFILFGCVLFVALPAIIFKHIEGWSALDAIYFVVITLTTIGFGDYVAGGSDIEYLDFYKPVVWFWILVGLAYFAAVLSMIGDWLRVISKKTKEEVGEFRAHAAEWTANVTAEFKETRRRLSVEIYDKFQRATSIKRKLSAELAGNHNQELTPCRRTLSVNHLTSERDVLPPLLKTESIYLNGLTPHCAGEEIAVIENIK", "conditions": "ref Mazella et al., 2010, Moha ou Maati et al., 2011, cited from earlier work", "source_text": "Depression is a devastating mental disorder that affects 20% of the population worldwide. Despite their proven efficacy, antidepressants present a delayed onset of action and serious adverse effects. Seven years ago, we described spadin (PE 12-28) as a promising endogenous peptide with antidepressant activity. Spadin specifically blocks the TREK-1 channel. […] In order to improve in vivo spadin stability and bioavailability, we screened spadin analogs and derivatives. From the study of spadin blood deg ... || Depression is one of the most common mood disorders that represents a heavy economic burden in industrialized countries (Smith, [2014]). Severe depression affects 2–5% of US citizens and up to 20% of the population suffer from mild depression (Nestler et al., [2002]; Maletic et al., [2007]; Krishnan and Nestler, [2008]; Kessler et al., [2012]). Depression is a complex syndrome with a variety of causes mostly genetic and environmental (Nestler et al., [2002])."}, "[2]": {"molecular_target": "T1, TREK-1 channel (hTREK-1/HEK cells)", "experiment": "TREK-1 current inhibition, whole-cell patch-clamp on hTREK-1/HEK cell line", "type": "cell-based", "conditions": "hTREK-1/HEK cells", "experimental": "The human TREK-1/HEK cell line (Moha ou Maati et al., [2011]) and the native HEK293 cell line were maintained in Dulbecco's Modified Eagle's Medium (DMEM) supplemented with 10% (v/v) heat-inactivated fetal bovine serum, 1% (v/v) penicillin-streptomycin, 1% Glutamax. For the hTREK-1/HEK cells, 0.5 mg/ml G418 were added to the medium.\nCells were incubated in a humidified atmosphere containing 5% CO2. For electrophysiological measurements, cells were plated at a density of 20,000 cells per 35 mm dish.\nCells from the hTREK-1/HEK cell line were seeded at a density of 20,000 cells/35 mm dish. Electrophysiological recordings were performed 24–48 h after plating using the whole-cell configuration of patch-clamp technique. TREK-1 currents (ITREK−1) were recorded using RK400 patch-clamp amplifier (Axon Instrument, USA). They were low-pass filtered at 3 kHz and digitized at 10 kHz using a 12-bit analog-to-digital converter digidata (1322 series, Axon Instrument, USA). ITREK−1amplitudes were expressed as current densities [current amplitude (pA)/membrane capacitance (pF)]. The results were expressed as mean ± SEM (standard error of the mean).\nCells were continuously perfused using an external bath solution containing in mM: 150 NaCl, 5 KCl, 3 MgCl2, 1 CaCl2, and 10 HEPES. The bath solution was initially adjusted to pH 7.4 with NaOH. The intra-pipette solution contained in mM: 155 KCl, 3 MgCl2, 5 EGTA, and 10 HEPES adjusted to pH 7.2 with KOH. In order to measure ITREK−1, a cocktail of potassium channel blockers was added to the bath solution. This cocktail contained: 3 mM 4-AP (4-aminopyridine), 10 mM TEA (tetraethylammonium), 10 μM Glibenclamide, 100 nM Apamin, and 50 nM Charybdotoxin. Data acquisition was carried out using a computer (Dell Pentium) with pClamp software (Axon Instrument, USA). Whole-cell currents were generated by running a pulse or ramp protocol every 5 s from −100 to +60 mV with a holding potential maintained at −80 mV. To evaluate the inhibitory effect on TREK-1 channels of shortened spadin analogs compared with spadin, cells were first activated by 10 μM arachidonic acid (AA). Dose-response curves were realized to compare spadin-analog effects with spadin using Origin 8.6 (Northampton, MA, USA).\nPatch-clamp recording data were analyzed using Clampfit (Molecular Devices, USA). I = f(V) curves were obtained from −100 to +60 mV ramp. Data were presented as mean ± SEM."}, "[3]": {"experiment": "In vitro degradation / half-life time in serum", "type": "in vitro ADME, mouse", "conditions": "mouse serum, 30 min, 37°C (method b20: 10 nmoles in 200 μl serum, room temperature); HPLC", "experimental": "[…] Incubations were stopped by direct acidification (5 μl of 2.5 M HCl), loaded in C-18 sepack cartridges, lyophilized, resuspended in 20% acetonitrile before loading onto HPLC for analysis of PE degradation/stability. Elutions of HPLC products were carried out by means of a 50-min linear gradient of acetonitrile from 20 to 70% at a flow rate of 1 ml/min. The amount of the intact PE for each incubation time was expressed as the percent of the initial amount of spadin."}, "mouse serum": {"experiment": "mouse serum", "conditions": "37°C (Figure 1 legend), room temperature, up to 60 min"}}, "note": "Like-named read-outs stand apart in the source and are kept apart here. Residues, ends and D or L forms follow the SMILES beside them.", "data": [{"compound": "CNCCC(Oc1ccc(C(F)(F)F)cc1)c1ccccc1", "note": "(stereo not drawn) [fluoxetine]", "values": [{"measurement": "IC50", "setting": "[1]; read-out: IC50 for TREK-1 block (fluoxetine)", "value": "~6", "unit": "µM"}]}, {"compound": "CC[C@H](C)[C@H](NC(=O)[C@@H]1CCCN1C(=O)CNC(=O)[C@H](CO)NC(=O)[C@H](Cc1c[nH]c2ccccc12)NC(=O)[C@H](CCCNC(=N)N)NC(=O)[C@@H]1CCCN1C(=O)[C@H](CC(C)C)NC(=O)[C@@H]1CCCN1C(=O)[C@H](C)N)C(=O)NCC(=O)N[C@H](C(=O)N[C@@H](CO)C(=O)N[C@@H](Cc1c[nH]c2ccccc12)C(=O)NCC(=O)N[C@@H](CC(C)C)C(=O)N[C@@H](CCCNC(=N)N)C(=O)O)C(C)C", "note": "[PE 12-28 (Spadin), reference compound] (H-APLPRWSGPIGVSWGLR-OH)", "values": [{"measurement": "inhibition at 0.1 µM", "setting": "[2]; HEK293, peptide 100 nM, TREK-1 first activated with 10 μM arachidonic acid (AA), current density at 0 mV, mean ± SEM, n = cells, read-out: % of TREK-1 inhibition", "value": "44.4 ± 8.82", "unit": "%"}, {"measurement": "IC50", "setting": "[2]; dose-response curves at 0 mV, activated by 10 μM AA", "value": 40, "unit": "nM"}, {"measurement": "IC50", "setting": "[1]; Moha Ou Maati et al., 2012, read-out: IC50 for TREK-1 block (spadin)", "value": "0.04 to 0.06", "unit": "µM"}, {"measurement": "spadin remaining after incubation with serum", "setting": "[3]", "value": "disappearance of almost all spadin"}]}, {"compound": "APLPRWSGPIGVSWGLR", "values": [{"measurement": "fragment found", "setting": "mouse serum", "value": "PE 12-27"}]}]}
